Results as given in ChEMBL document CHEMBL1131354 (Bioorg Med Chem Lett, 1998).

Target: T1, Melatonin receptor type 1B (Gallus gallus, UniProt P51050)
T1 sequence (P51050 whole entry): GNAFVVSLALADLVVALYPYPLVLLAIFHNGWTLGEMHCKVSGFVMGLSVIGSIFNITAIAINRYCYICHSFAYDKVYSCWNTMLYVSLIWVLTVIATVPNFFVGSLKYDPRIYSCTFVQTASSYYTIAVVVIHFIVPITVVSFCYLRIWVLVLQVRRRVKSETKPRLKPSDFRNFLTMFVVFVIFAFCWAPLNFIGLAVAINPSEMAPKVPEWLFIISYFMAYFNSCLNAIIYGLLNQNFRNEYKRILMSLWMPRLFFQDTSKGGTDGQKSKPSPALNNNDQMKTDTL
Assay: Binding affinity measured against Chicken brain melatonin receptor by using 2-[125I]iodomelatonin as radioligand

Row | Compound | Ki [nM]
1 | COc1ccc2c(c1)C(CNC(C)=O)CC2 (configuration not stated) | 77
2 | CCCC(=O)NCC1CCCc2ccc(OC)cc21 (configuration not stated) | 0.45
3 | CCCC(=O)NCC1CCCCc2ccc(OC)cc21 (configuration not stated) | 1
4 | CCC(=O)NCC1CCCCc2ccc(OC)cc21 (configuration not stated) | 29
5 | CCCC(=O)NCC1Cc2ccc(OC)cc21 (configuration not stated) | 49
6 | COc1ccc2c(c1)C(CNC(C)=O)CCC2 (configuration not stated) | 4
7 | CCCC(=O)NCC1CCc2ccc(OC)cc21 (configuration not stated) | 7.6
8 | CCC(=O)NCC1Cc2ccc(OC)cc21 (configuration not stated) | 40
9 | COc1ccc2c(c1)C(CNC(C)=O)CCCC2 (configuration not stated) | 34
10 | COc1ccc2c(c1)C(CNC(C)=O)C2 (configuration not stated) | 224
11 | COc1cccc2c1CC(NC(C)=O)CC2 (configuration not stated) | 161
12 | CCC(=O)NCC1CCc2ccc(OC)cc21 (racemic) | 16
13 | CCC(=O)NCC1CCCc2ccc(OC)cc21 (racemic) | 0.53
14 | CCC(=O)NCC1CCc2ccc(OC)cc21 (single isomer, unassigned; (+)) | 3
15 | CCC(=O)NCC1CCCc2ccc(OC)cc21 (single isomer, unassigned; (+)) | 0.45
16 | CCC(=O)NCC1CCc2ccc(OC)cc21 (single isomer, unassigned; (-)) | 456
17 | CCC(=O)NCC1CCCc2ccc(OC)cc21 (single isomer, unassigned; (-)) | > 1000
